Test results: patent US5053408A, “Hexitol derivatives having vasodilative activity” (Kyowa Hakko Kogyo Co., Ltd., priority 1989, dated 1991)
Structures can show the parent of a compound that is named as a salt. Where two headings read alike, the source gives them in different places.

Columns and labels:
male dd-mice = assay: Acute toxicity; conditions: mouse, in vivo, 10080 min; for MLD i.p.: ip; for MLD p.o.: po
Description: The compounds were orally administered and intraperitoneally administered to male dd-mice weighing 20 to 25 g. […] was determined by observing the mortality for seven days after the administration.

[1] = tested on: coronary vasospasm model (lysine-vasopressin); assay: Effects on coronary vasospasm model (lysine-vasopressin test), inhibition of ST-segment elevation; format: in vivo, male Wistar rats; conditions: Rattus norvegicus
[2] = ip, 20 min before anesthetization, lysine-vasopressin 0.3 I.U./kg iv, MED = minimum dose with depression rate of 20% or higher, read-out: Coronary vasoconstriction model MED i.p.
[3] = po, 30 min before anesthetization, lysine-vasopressin 0.3 I.U./kg iv, MED = minimum dose with depression rate of 20% or higher, read-out: Coronary vasoconstriction model MED p.o.

Row | SMILES | MLD i.p. (male dd-mice) [mg/kg] | MLD p.o. (male dd-mice) [mg/kg] | minimal effective dose [1, 2] [mg/kg] | minimal effective dose [1, 3] [mg/kg] | minimal effective dose ([1]; ip, read-out: Coronary vasoconstriction model MED i.p.) [mg/kg] | minimal effective dose ([1]; po, read-out: Coronary vasoconstriction model MED p.o.) [mg/kg]
1 | O=[N+]([O-])O[C@H]1CO[C@H]2[C@@H]1OC[C@@H]2N1CCN(CCCSc2ccccc2)CC1 [Compound 1, 5-Deoxy-5-[4-(3-phenylthiopropyl)piperazin-1-yl]-1.4;3.6-dianhydro-L-iditol2-nitrate hydrochloride] | > 100 | > 150 | < 25 | < 30 | – | –
2 | O=[N+]([O-])O[C@H]1CO[C@H]2[C@@H]1OC[C@@H]2N1CCN(CCCSc2ccncc2)CC1 [Compound 12, 5-Deoxy-5-[4-[3-(pyridin-4-ylthio)propyl]piperazin-1-yl]-1.4;3.6-dianhydro-L-iditol 2-nitrate hydrochloride] | > 100 | > 300 | – | < 30 | – | –
3 | O=C(O)Cc1ccc(SCCCN2CCN([C@H]3CO[C@H]4[C@@H]3OC[C@@H]4O[N+](=O)[O-])CC2)cc1 [Compound 16, 5-[4-[3-(4-Carboxymethylphenylthio)propyl]piperazin-1-yl]-5-deoxy-1.4;3.6-dianhydro-L-iditol 2-nitrate] | > 100 | > 300 | – | < 30 | – | –
4 | O=[N+]([O-])O[C@H]1CO[C@H]2[C@@H]1OC[C@@H]2N1CCN(CCCn2ccnc2)CC1 [Compound 21, 5-Deoxy-5-[4-[3-(imidazol-1-yl)propyl]piperazin-1-yl]-1.4;3.6-dianhydro-L-iditol 2-nitrate hydrochloride] | > 100 | > 300 | – | < 30 | – | –
5 | O=[N+]([O-])O[C@H]1CO[C@H]2[C@@H]1OC[C@@H]2N1CCN(CCCn2cnc3ccccc32)CC1 [Compound 22, 5-[4-[3-(Benzimidazol-1-yl)propyl]piperazin-1-yl]-5-deoxy-1.4;3.6-dianhydro-L-iditol 2-nitrate hydrochloride] | > 100 | > 300 | < 25 | < 30 | – | –
6 | Cc1cc2ncn(CCCN3CCN([C@H]4CO[C@H]5[C@@H]4OC[C@@H]5O[N+](=O)[O-])CC3)c2cc1C [Compound 23, 5-Deoxy-5-[4-[3-(5,6-dimethylbenzimidazol-1-yl)propyl]-piperazin-1-yl]-1.4;3.6-dianhydro-L-iditol 2-nitrate hydrochloride] | > 100 | > 300 | – | < 30 | – | –
7 | O=[N+]([O-])O[C@H]1CO[C@H]2[C@@H]1OC[C@@H]2N1CCN(CCCn2ccc3ccccc32)CC1 [Compound 27, 5-Deoxy-5-[4-[3-(indol-1-yl)propyl]piperazin-1-yl]-1.4;3.6-dianhydro-L-iditol 2-nitrate hydrochloride] | > 100 | > 300 | – | < 30 | – | –
8 | O=[N+]([O-])O[C@H]1CO[C@H]2[C@@H]1OC[C@@H]2N1CCN(CCCn2cc3ccccc3n2)CC1 [Compound 31, 5-Deoxy-5-[4-[3-(indazol-2-yl)propyl]piperazin-1-yl]-1.4; 3.6-dianhydro-L-iditol 2-nitrate hydrochloride] | > 100 | > 300 | < 25 | – | – | –
9 | O=[N+]([O-])O[C@H]1CO[C@H]2[C@@H]1OC[C@@H]2N1CCN(CCc2nc3ccccc3[nH]2)CC1 [Compound 57, 5-[4-[2-(Benzimidazol-2-yl)ethyl]piperazin-1-yl]-5-deoxy-1.4;3.6-dianhydro-L-iditol 2-nitrate hydrochloride] | > 100 | > 300 | < 25 | – | – | –
10 | O=C(c1cccnc1)N1CCN([C@H]2CO[C@H]3[C@@H]2OC[C@@H]3O)CC1 [Compound 117, 5-Deoxy-5-[4-(pyridin-3-yl)carbonylpiperazin-1-yl]-1.4;3.6-dianhydro-L-iditol] | – | – | – | – | < 25 | < 30
11 | O=C(NCCO[N+](=O)[O-])c1cccnc1 [Nicorandil, reference compound] | – | – | < 30 | – | – | –
